The target in the test is T1, AHR (Mus musculus, UniProt P30561).
T1 sequence (P30561 1-848 P471L/N533S/M589L): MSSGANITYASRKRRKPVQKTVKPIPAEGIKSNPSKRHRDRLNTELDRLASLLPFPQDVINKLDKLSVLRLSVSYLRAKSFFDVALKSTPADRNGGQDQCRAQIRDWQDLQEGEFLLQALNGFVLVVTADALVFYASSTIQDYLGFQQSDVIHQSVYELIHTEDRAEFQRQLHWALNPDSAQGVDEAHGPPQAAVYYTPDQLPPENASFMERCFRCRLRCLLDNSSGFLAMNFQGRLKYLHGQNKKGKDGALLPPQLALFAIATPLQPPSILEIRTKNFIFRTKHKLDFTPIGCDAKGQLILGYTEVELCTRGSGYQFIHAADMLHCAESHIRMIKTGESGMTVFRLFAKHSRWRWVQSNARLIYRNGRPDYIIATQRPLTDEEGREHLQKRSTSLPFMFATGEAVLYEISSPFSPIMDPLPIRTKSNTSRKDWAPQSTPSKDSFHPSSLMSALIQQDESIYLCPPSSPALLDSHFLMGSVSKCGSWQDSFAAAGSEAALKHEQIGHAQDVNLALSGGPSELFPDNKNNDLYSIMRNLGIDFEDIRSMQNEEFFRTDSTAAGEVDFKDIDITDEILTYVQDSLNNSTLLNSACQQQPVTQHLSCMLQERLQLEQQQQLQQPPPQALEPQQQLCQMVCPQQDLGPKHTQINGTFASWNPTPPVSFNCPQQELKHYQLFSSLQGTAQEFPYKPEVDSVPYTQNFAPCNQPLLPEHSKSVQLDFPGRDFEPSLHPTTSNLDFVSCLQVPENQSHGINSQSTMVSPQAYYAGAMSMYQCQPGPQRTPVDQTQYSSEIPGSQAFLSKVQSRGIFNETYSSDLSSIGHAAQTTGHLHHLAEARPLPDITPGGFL
Description: In vitro assay 3: antagonism in mouse cell line (AHR transactivation, firefly luciferase reporter, kynurenic acid prestimulated). The format is cell-based. Here is the method:
Examples were tested in selected biological assays one or more times. When tested more than once, data are reported as either average values or as median values, wherein • the average value, also referred to as the arithmetic mean value, represents the sum of the values obtained divided by the number of times tested, and • the median value represents the middle number of the group of values when ranked in ascending or descending order. If the number of values in the data set is odd, the median is the middle value. If the number of values in the data set is even, the median is the arithmetic mean of the two middle values.
In addition the cells were stably transfected with an AHR inducible firefly luciferase reporter gene construct that carried AHR-binding sites (DRE) in its promoter. Kynurenic acid is an endogenous AHR activating ligand and was used to prestimulate test cells prior to testing the antagonistic properties of compounds.
As positive inhibition control cells without addition of kynurenic acid were incubated. Normalization was done by positive and negative controls.
Firefly luciferase activity was determined by the SteadyGlo Luciferase Assay System (Promega, #E2550).
(A reporter such as luciferase makes a cellular process visible.)

Where [1] appears, read: mouse Hepa 1c1c7 cells, 200 μM kynurenic acid, 20 hours, read-out: AHR Antagonism Mouse IC50.
[2] abbreviates: Hepa 1c1c7 cells, 200 μM kynurenic acid, 20 hours, firefly luciferase reporter, read-out: AHR Antagonism Mouse IC50.

Molecules are shown by their SMILES. Where two headings read alike, the source gives them in different places. Where only a bound is given, the exact number is not on record here.

By IC50 is commonly meant the concentration needed to halve the response being measured. As to `COc1ccc(-c2nc3c4c(Cl)cccc4nc(NC4CNCCNC4=O)n3n2)cc1` (single isomer, unassigned) [Example 296, 6-{[10-Chloro-2-(4-methoxyphenyl)[1,2,4]triazolo[1,5-c]quinazolin-5-yl]amino}-1,4-diazepan-5-one], the IC50 under setting [1] amounted to 0.0731 µM.
Take `CCCC[C@H](Nc1nc2ccccc2c2nc(-c3ccccc3OC(F)(F)F)nn12)C(N)=O` [Example 467, N^2-{2-[2-(trifluoromethoxy)phenyl][1,2,4]triazolo[1,5-c]quinazolin-5-yl}norleucinamide]: the IC50 under setting [1] was found to be 0.0328 µM.
In the case of `COc1cccc(-c2nc3c4ccccc4nc(N[C@@H](C(=O)O)C(C)C)n3n2)c1` [Example 94, N-[2-(3-methoxyphenyl)[1,2,4]triazolo[1,5-c]quinazolin-5-yl]-D-valine], the IC50 under setting [1] stood at 0.017 µM.
Consider `C[C@@H](Nc1nc2ccccc2c2nc(-c3ccccc3OC(F)(F)F)nn12)C(=O)NCCN(C)C` [Example 791, formic acid-N-[2-(dimethylamino)ethyl]-N^2-{2-[2-(trifluoromethoxy)phenyl][1,2,4]triazolo[1,5-c]quinazolin-5-yl}-D-alaninamide (1/1)], for which the IC50 (read-out: AHR Antagonism Mouse IC50, Hepa 1c1c7 cells, 200 μM kynurenic acid, 20 hours, firefly luciferase reporter) was determined as 0.264 µM.
As to `O=C1NCCNCC1Nc1nc2cccc(Br)c2c2nc(-c3ccc(F)cc3)nn12` (centres unmarked) [Example 282, 6-{[10-bromo-2-(4-fluorophenyl)[1,2,4]triazolo[1,5-c]quinazolin-5-yl]amino}-1,4-diazepan-5-one], under setting [1], the IC50 amounted to 0.0269 µM.
On the same count and under the same terms, the same measure for `COc1ccc(-c2nc3c4cccc(Cl)c4nc(N[C@@H]4CCCCNC4=O)n3n2)cc1` [Example 553, (3R)-3-{[7-chloro-2-(4-methoxyphenyl)[1,2,4]triazolo[1,5-c]quinazolin-5-yl]amino}azepan-2-one]: 0.00118 µM; for `COc1ccc(-c2nc3c4ccccc4nc(N[C@H]4CCCCNC4=O)n3n2)cc1` [Example 30, (3S)-3-{[2-(4-methoxyphenyl)[1,2,4]triazolo[1,5-c]quinazolin-5-yl]amino}azepan-2-one]: 0.00976 µM; for `CC[C@H](Nc1nc2ccccc2c2nc(-c3cccc(OC(F)(F)F)c3)nn12)C(N)=O` [Example 448, (2S)-2-({2-[3-(trifluoromethoxy)phenyl][1,2,4]triazolo[1,5-c]quinazolin-5-yl}amino)butanamide]: 0.134 µM.
On to `COc1ccc(-c2nc3c4c(C)cccc4nc(NC4CNCCNC4=O)n3n2)cc1` (centres unmarked) [Example 192, 6-{[2-(4-methoxyphenyl)-10-methyl[1,2,4]triazolo[1,5-c]quinazolin-5-yl]amino}-1,4-diazepan-5-one], for which the IC50 under setting [1] was 0.0349 µM.
Regarding `COc1ccc(-c2nc3c4ccccc4nc(NC4CCNC4=O)n3n2)cc1` (centres unmarked) [Example 31, 3-{[2-(4-methoxyphenyl)[1,2,4]triazolo[1,5-c]quinazolin-5-yl]amino}pyrrolidin-2-one], the IC50 under setting [1] was found to be 0.0134 µM.
Regarding `COc1ccc(-c2nc3c4cc(C(F)(F)F)ccc4nc(N[C@@H]4CNCCNC4=O)n3n2)cc1` [Example 418, (6R)-6-{[2-(4-methoxyphenyl)-9-(trifluoromethyl)[1,2,4]triazolo[1,5-c]quinazolin-5-yl]amino}-1,4-diazepan-5-one], under setting [1], the IC50 came out at 8.71 µM.
On to `COc1cccc(-c2nc3c4ccccc4nc(N[C@H](CCSC)C(N)=O)n3n2)c1` [Example 96, N^2-[2-(3-methoxyphenyl)[1,2,4]triazolo[1,5-c]quinazolin-5-yl]-D-methioninamide], for which the IC50 under setting [1] stood at 0.269 µM.
Turning to `COc1ccc(-c2nc3c4cccc(C)c4nc(N[C@H]4CNCCNC4=O)n3n2)cc1` [Example 970, (6S)-6-{[2-(4-methoxyphenyl)-7-methyl[1,2,4]triazolo[1,5-c]quinazolin-5-yl]amino}-1,4-diazepan-5-one], under setting [2], the IC50 is 0.0529 µM.
`O=C1NCC[C@H]1Nc1nc2ccccc2c2nc(-c3ccc(OC(F)(F)F)cc3)nn12` [Example 327, (3R)-3-({2-[4-(trifluoromethoxy)phenyl][1,2,4]triazolo[1,5-c]quinazolin-5-yl}amino)pyrrolidin-2-one]: the IC50 under setting [1] is 0.00529 µM.
Take `O=C1NCCCC[C@@H]1Nc1nc2ccccc2c2nc(-c3ccc(F)cc3)nn12` [Example 71, (3S)-3-{[2-(4-fluorophenyl)[1,2,4]triazolo[1,5-c]quinazolin-5-yl]amino}azepan-2-one]: the IC50 under setting [1] came to 0.00386 µM.
For the compound `COc1cccc(-c2nc3c4ccccc4nc(NC(C)(C)C(N)=O)n3n2)c1` [Example 98, N^2-[2-(3-methoxyphenyl)[1,2,4]triazolo[1,5-c]quinazolin-5-yl]-2-methylalaninamide], the IC50 under setting [1] amounted to 1.14 µM.
In the case of `O=C1NCCNC[C@H]1Nc1nc2c(F)cccc2c2nc(-c3ccc(F)cc3)nn12` [Example 427, (6R)-6-{[7-fluoro-2-(4-fluorophenyl)[1,2,4]triazolo[1,5-c]quinazolin-5-yl]amino}-1,4-diazepan-5-one], under setting [1], the IC50 stood at 0.00316 µM.
`COc1ccc(-c2nc3c4cccc(N(C)C)c4nc(N[C@@H]4CCCCNC4=O)n3n2)cc1` [Example 829, (3R)-3-{[7-(dimethylamino)-2-(4-methoxyphenyl)[1,2,4]triazolo[1,5-c]quinazolin-5-yl]amino}azepan-2-one]: the IC50 under setting [2] worked out at 0.0468 µM.
In the case of `COc1ccc(-c2nc3c4c(Cl)cccc4nc(NC4CNCCNC4=O)n3n2)cc1` (single isomer, unassigned) [Example 297, 6-{[10-chloro-2-(4-methoxyphenyl)[1,2,4]triazolo[1,5-c]quinazolin-5-yl]amino}-1,4-diazepan-5-one], the IC50 under setting [1] was 0.0251 µM.
`O=C1NCCC1Nc1nc2ccccc2c2nc(-c3ccc(F)cc3)nn12` (centres unmarked) [Example 73, 3-{[2-(4-fluorophenyl)[1,2,4]triazolo[1,5-c]quinazolin-5-yl]amino}pyrrolidin-2-one]: under setting [1], the IC50 was determined as 0.00387 µM.
For `COc1ccc(-c2nc3c4cc(C(F)(F)F)ccc4nc(N[C@@H]4CCCCNC4=O)n3n2)cc1` [Example 545, (3R)-3-{[2-(4-methoxyphenyl)-9-(trifluoromethyl)[1,2,4]triazolo[1 ,5-c]quinazolin-5-yl]amino}azepan-2-one], under setting [1], the IC50 is more than 20 µM.
`COc1ccc(-c2nc3c4c(C)cccc4nc(N[C@@H]4CNCCNC4=O)n3n2)cc1` [Example 290, (6R)-6-{[2-(4-methoxyphenyl)-10-methyl[1,2,4]triazolo[1,5-c]quinazolin-5-yl]amino}-1,4-diazepan-5-one]: the IC50 under setting [1] came to 0.288 µM.
Turning to `COc1ccc(-c2nc3c4cccc(Br)c4nc(N[C@H]4CCCCNC4=O)n3n2)cc1` [Example 211, (3S)-3-{[7-bromo-2-(4-methoxyphenyl)[1,2,4]triazolo[1,5-c]quinazolin-5-yl]amino}azepan-2-one], the IC50 under setting [1] amounted to 0.0167 µM.
Take `O=C1NCCNCC1Nc1nc2cccc(Br)c2c2nc(-c3cccc(F)c3)nn12` (centres unmarked) [Example 283, 6-{[10-bromo-2-(3-fluorophenyl)[1,2,4]triazolo[1,5-c]quinazolin-5-yl]amino}-1,4-diazepan-5-one]: under setting [1], the IC50 worked out at 0.172 µM.
For `O=C1NCCNC[C@H]1Nc1nc2ccccc2c2nc(-c3ccc(F)cc3)nn12` [Example 260, (6R)-6-{[2-(4-fluorophenyl)[1,2,4]triazolo[1,5-c]quinazolin-5-yl]amino}-1,4-diazepan-5-one], under setting [1], the IC50 came out at 0.00675 µM.
Take `O=C1NCCCC[C@H]1Nc1nc2c(Br)cc(Br)cc2c2nc(-c3ccc(F)cc3)nn12` [Example 591, (3R)-3-{[7,9-dibromo-2-(4-fluorophenyl)[1,2,4]triazolo[1,5-c]quinazolin-5-yl]amino}azepan-2-one]: under setting [1], the IC50 stood at 2.42 µM.

The record behind these values is patent US20230113037A1 (Bayer Aktiengesellschaft, priority 2019, published 2023).
